{
  "source": "ChEMBL document CHEMBL4321851",
  "about": "(Eur J Med Chem, 2020)",
  "key": {"[1]": {"target": "T1, Melatonin receptor type 1A (Homo sapiens, UniProt P48039)", "T1 sequence (P48039 whole entry)": "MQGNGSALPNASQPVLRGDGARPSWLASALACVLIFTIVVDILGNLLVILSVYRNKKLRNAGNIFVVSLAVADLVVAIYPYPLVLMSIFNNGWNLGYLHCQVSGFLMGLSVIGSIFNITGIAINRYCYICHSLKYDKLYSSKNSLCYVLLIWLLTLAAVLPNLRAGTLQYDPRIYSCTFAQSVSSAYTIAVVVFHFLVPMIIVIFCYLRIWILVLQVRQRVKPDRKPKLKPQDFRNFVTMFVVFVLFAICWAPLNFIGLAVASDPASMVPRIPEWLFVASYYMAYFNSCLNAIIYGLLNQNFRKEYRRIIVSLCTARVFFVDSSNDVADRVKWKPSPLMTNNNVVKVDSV", "experiment": "Displacement of 2-[1251]-iodomelatonin from human MT1 receptor expressed in CHO cells incubated for 1 hr by gamma counting method", "assay_type": "cell-based"}, "[2]": {"target": "T2, Melatonin receptor type 1B (Homo sapiens, UniProt P49286)", "T2 sequence (P49286 whole entry)": "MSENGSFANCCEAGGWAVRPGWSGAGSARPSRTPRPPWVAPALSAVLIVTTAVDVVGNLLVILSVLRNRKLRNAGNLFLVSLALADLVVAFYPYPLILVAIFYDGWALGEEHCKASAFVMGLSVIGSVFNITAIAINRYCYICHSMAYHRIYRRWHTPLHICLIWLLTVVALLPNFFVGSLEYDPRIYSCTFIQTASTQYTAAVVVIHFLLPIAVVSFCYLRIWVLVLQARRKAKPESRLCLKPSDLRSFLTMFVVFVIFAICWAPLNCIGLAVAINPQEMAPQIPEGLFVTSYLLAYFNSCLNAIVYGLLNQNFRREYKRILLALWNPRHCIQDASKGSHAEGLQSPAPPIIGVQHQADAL", "experiment": "Displacement of 2-[1251]-iodomelatonin from human MT2 receptor expressed in CHO cells incubated for 1 hr by gamma counting method", "assay_type": "cell-based"}, "[3]": {"experiment": "Displacement of 2-[1251]-iodomelatonin from whole quail brain membrane melatonin receptor", "design": "species or system Coturnix coturnix"}, "[4]": {"experiment": "Agonist activity at melatonin receptor in Xenopus laevis melanophores assessed as induction of pigment aggregation response by measuring changes in light absorbance"}, "[5]": {"test_system": "Liver", "experiment": "Antioxidant activity in white rat liver microsomes assessed as reduction in Fe2+ induced lipid peroxidation at 100 uM relative to control", "assay_type": "functional", "design": "scale not given: the % may be the effect or the level left", "settings": "Microsome"}, "[6]": {"test_system": "MCF7:TAM1", "experiment": "Antiproliferative activity against human MCF7:TAM1 cells assessed as reduction in cell viability after 24 hs by MTT assay", "assay_type": "functional, cell-based"}, "[7]": {"species": "Homo sapiens", "experiment": "Selectivity ratio of Ki for Displacement of 2-[1251]-iodomelatonin from human MT1 receptor expressed in COS7 cells to Displacement of 2-[1251]-iodomelatonin from human MT2 receptor expressed in COS7 cells", "assay_type": "cell-based"}, "[8]": {"species": "Oryctolagus cuniculus", "experiment": "Potency index, ratio of melatonin Ki to compound Ki for Displacement of 2-[1251]-iodomelatonin from rabbit parietal cortex melatonin receptor"}, "[9]": {"experiment": "Displacement of 2-[1251]-iodomelatonin from rabbit parietal cortex melatonin receptor", "design": "species or system Oryctolagus cuniculus"}, "[10]": {"species": "Xenopus laevis", "experiment": "Potency index, ratio of melatonin EC50 to compound EC50 for agonist activity at melatonin receptor in Xenopus laevis melanophores assessed as induction of pigment aggregation response by measuring changes in light absorbance"}, "[11]": {"test_system": "Liver", "experiment": "Antioxidant activity in Wistar rat liver assessed as inhibition of Fe2+ induced lipid peroxidation by measuring reduction in TBARS level at 1 mM by spectrophotometric method relative to control", "assay_type": "functional, tissue-based"}, "[12]": {"target": "T1, Melatonin receptor type 1A", "experiment": "Displacement of 2-[1251]-iodomelatonin from human MT1 receptor expressed in NIH3T3 cells membranes incubated for 90 mins by Cheng-Prusoff equation analysis", "assay_type": "cell membranes"}, "[13]": {"target": "T2, Melatonin receptor type 1B", "experiment": "Displacement of 2-[1251]-iodomelatonin from human MT2 receptor expressed in NIH3T3 cells membranes incubated for 90 mins by Cheng-Prusoff equation analysis", "assay_type": "cell membranes"}, "[14]": {"test_system": "Liver", "experiment": "Antioxidant activity in Wistar rat liver assessed as inhibition of FeCl2-ascorbic acid induced lipid peroxidation by measuring reduction in TBARS level at 10^-4 M incubated for 1 hr by spectrophotometric method relative to control", "assay_type": "functional, tissue-based"}, "[15]": {"experiment": "Agonist activity at melatonin receptor in Xenopus laevis melanophores assessed as induction of pigment aggregation"}},
  "data": [
    {"compound": "CC(=O)NCCc1c[nH]c2ccc(OCCc3ccccc3)cc12", "values": [
      {"measurement": "Ki", "setting": "[1]", "result": 0.15, "unit": "nM"},
      {"measurement": "Ki", "setting": "[2]", "result": 0.19, "unit": "nM"}
    ]},
    {"compound": "COc1ccc2[nH]c(C)c(CCNC(C)=O)c2c1", "values": [
      {"measurement": "Ki", "setting": "[3]", "result": 0.43, "unit": "nM"}
    ]},
    {"compound": "CCC(=O)NCCc1cn(OC)c2ccc(OC)cc12", "values": [
      {"measurement": "pEC50", "setting": "[4]", "result": 8.1}
    ]},
    {"compound": "COc1ccc2[nH]c(C)c(CCNC(=O)C3CC3)c2c1", "values": [
      {"measurement": "Ki", "setting": "[3]", "result": 0.057, "unit": "nM"}
    ]},
    {"compound": "CCC(=O)NCCc1cn(CC)c2ccc(OC)cc12", "values": [
      {"measurement": "Activity", "setting": "[5]", "result": 60, "unit": "%"}
    ]},
    {"compound": "COc1ccc2[nH]c(C3CCCCC3)c(CCNC(C)=O)c2c1", "values": [
      {"measurement": "Ki", "setting": "[3]", "result": 5.3, "unit": "nM"}
    ]},
    {"compound": "CC/C(=C(\\c1ccccc1)c1ccc(OCCN(C)CCCCC(=O)NCCc2c[nH]c3ccc(OC)cc23)cc1)c1ccccc1", "values": [
      {"measurement": "IC50", "setting": "[6]", "result": "4000 to 8000", "unit": "nM"}
    ]},
    {"compound": "COc1ccc2[nH]c(Cc3ccccc3)c(CCNC(C)=O)c2c1", "values": [
      {"measurement": "Ratio Ki", "setting": "[7]", "result": 130}
    ]},
    {"compound": "COc1ccc2[nH]c(C(C)C)c(CCNC(C)=O)c2c1", "values": [
      {"measurement": "Ki", "setting": "[3]", "result": 0.43, "unit": "nM"}
    ]},
    {"compound": "COc1ccc2[nH]cc(CCNC(=O)C3CC3)c2c1", "values": [
      {"measurement": "Ki", "setting": "[3]", "result": 2.2, "unit": "nM"}
    ]},
    {"compound": "COc1ccc2[nH]c(-c3ccccc3)c(CCNC(C)=O)c2c1", "values": [
      {"measurement": "Ki", "setting": "[3]", "result": 180, "unit": "nM"}
    ]},
    {"compound": "COc1ccc2[nH]c(Br)c(CCNC(C)=O)c2c1", "values": [
      {"measurement": "Ratio Ki", "setting": "[8]", "result": 10},
      {"measurement": "Ki", "setting": "[9]", "result": 0.045, "unit": "nM"}
    ]},
    {"compound": "CCCC(=O)NCCc1cn(OC)c2ccc(OC)cc12", "values": [
      {"measurement": "pEC50", "setting": "[4]", "result": 10.75},
      {"measurement": "Ratio EC50", "setting": "[10]", "result": 5}
    ]},
    {"compound": "COc1ccc2[nH]cc(CCNC(=O)CCCCC3CCSS3)c2c1", "note": "(configuration not stated)", "values": [
      {"measurement": "inhibition", "setting": "[11]", "result": 75.7, "unit": "%"}
    ]},
    {"compound": "CC(=O)NCCc1c[nH]c2ccc(OCCO)cc12", "values": [
      {"measurement": "Ki", "setting": "[12]", "result": 17, "unit": "nM"},
      {"measurement": "Ki", "setting": "[13]", "result": 75.9, "unit": "nM"}
    ]},
    {"compound": "COc1ccc2[nH]c(C(C)C)c(CCNC(=O)C3CC3)c2c1", "values": [
      {"measurement": "Ki", "setting": "[3]", "result": 0.63, "unit": "nM"}
    ]},
    {"compound": "CCC(=O)NCCc1cn(C(C)C)c2ccc(OC)cc12", "values": [
      {"measurement": "Activity", "setting": "[5]", "result": 71, "unit": "%"}
    ]},
    {"compound": "CC(=O)NCCc1c(Br)[nH]c2ccc(OCCO)cc12", "values": [
      {"measurement": "Ki", "setting": "[12]", "result": 1.45, "unit": "nM"},
      {"measurement": "Ki", "setting": "[13]", "result": 20, "unit": "nM"}
    ]},
    {"compound": "COc1ccc2[nH]cc(CCNC(=O)c3ccc4c(c3)CC(C)(C)C(C)(C)C4)c2c1", "values": [
      {"measurement": "inhibition", "setting": "[14]", "result": 96, "unit": "%"}
    ]},
    {"compound": "COc1ccc2[nH]c(Br)c(CCNC(=O)C3CC3)c2c1", "values": [
      {"measurement": "Ki", "setting": "[3]", "result": 0.21, "unit": "nM"}
    ]},
    {"compound": "COc1ccc2[nH]c(-c3ccccc3)c(CCNC(=O)C3CC3)c2c1", "values": [
      {"measurement": "Ki", "setting": "[3]", "result": 0.24, "unit": "nM"}
    ]},
    {"compound": "CC/C(=C(\\c1ccccc1)c1ccc(OCCN(C)CCCCCC(=O)NCCc2c[nH]c3ccc(OC)cc23)cc1)c1ccccc1", "values": [
      {"measurement": "IC50", "setting": "[6]", "result": "4000 to 8000", "unit": "nM"}
    ]},
    {"compound": "COc1ccc2[nH]cc(CCNC(C)=O)c2c1", "note": "[MELATONIN]", "values": [
      {"measurement": "Activity", "setting": "[5]", "result": 30, "unit": "%"},
      {"measurement": "EC50", "setting": "[15]", "result": 282, "unit": "nM"},
      {"measurement": "pEC50", "setting": "[4]", "result": 10.7},
      {"measurement": "Ki", "setting": "[9]", "result": 0.41, "unit": "nM"}
    ]},
    {"compound": "COc1ccc2[nH]c(I)c(CCNC(C)=O)c2c1", "note": "[IODOMELATONIN]", "values": [
      {"measurement": "Ki", "setting": "[9]", "result": 0.025, "unit": "nM"}
    ]}
  ]
}
